Measurements published in patent US9868727B2, “Factor XIa inhibitors” (Merck Sharp & Dohme Corp., priority 2014, dated 2018).

Columns and labels:
[1] = biological target: T1, purified human Factor XIa (Homo sapiens, UniProt P03951); assay: Factor XIa Assay; format: biochemical; conditions: fluorogenic substrate Z-Gly-Pro-Arg-AFC 100 μM, 40 pM enzyme, pH 7.4, read-out: F11a IC50
T1 construct: purified human Factor XIa; purchased Sekisui Diagnostics
Description: The effectiveness of a compound of the present invention as an inhibitor of Coagulation Factor XIa can be determined using a relevant purified serine protease, and an appropriate synthetic substrate. The rate of hydrolysis of the chromogenic or fluorogenic substrate by the relevant serine protease was measured both in the absence and presence of compounds of the present invention. Assays were conducted at room temperature or at 37° C. […] A decrease in the rate of fluorescence change in the presence of inhibitor is indicative of enzyme inhibition. Such methods are known to one skilled in the art. […]
Factor XIa determinations were made in 50 mM HEPES buffer at pH 7.4 containing 150 mM NaCl, 5 mM CaCl2, and 0.1% PEG 8000 (polyethylene glycol; JT Baker or Fisher Scientific). Determinations were made using purified human Factor XIa at a final concentration of 40 pM (Sekisui Diagnostics) and he synthetic substrate, Z-Gly-Pro-Arg-AFC, TFA salt (Sigma #C0980) at a concentration of 100 μM.
Activity assays were performed by diluting a stock solution of substrate at least tenfold to a final concentration ≦0.1 Km into a solution containing enzyme or enzyme equilibrated with inhibitor. Times required to achieve equilibration between enzyme and inhibitor were determined in control experiments. Initial velocities of product formation in the absence (VO) or presence of inhibitor (Vi) were measured. Assuming competitive inhibition, and that unity is negligible compared Km/[S], [I]/e, and [I]/e (where [S], [I], and e respectively represent the total concentrations, of substrate, inhibitor and enzyme), the equilibrium constant (Ki) for dissociation of the inhibitor from the enzyme can be obtained from the dependence of VO/Vi on [I] shown in the following equation.

[2] = biological target: T2, purified Human plasma kallikrein (Homo sapiens, UniProt P03952); assay: Kallikrein Assay; format: biochemical; conditions: Plasma Kallekrein IC50; fluorogenic substrate Acetyl-K-P-R-AFC, 0.5 nM enzyme, pH 7.4; read-out: PK IC50
T2 construct: yields a heavy chain (371 amino acids) and a light chain (248 amino acids); purchased Enzyme Research Laboratories
Description: The effectiveness of a compound of the present invention as an inhibitor of Kallikrein can be determined using a relevant purified serine protease, and an appropriate synthetic substrate. The rate of hydrolysis of the chromogenic or fluorogenic substrate by the relevant serine protease was measured both in the absence and presence of compounds of the present invention. Assays were conducted at room temperature or at 37° C. […] A decrease in the rate of fluorescence change in the presence of inhibitor is indicative of enzyme inhibition. Such methods are known to one skilled in the art. The results of this assay are expressed as the inhibitory constant, K1.
Kallikrein determinations were made in 50 mM HEPES buffer at pH 7.4 containing 150 mM NaCl, 5 mM CaCl2, and 0.1% PEG 8000 (polyethylene glycol; Fisher Scientific). Determinations were made using purified Human plasma kallikrein at a final concentration of 0.5 nM (Enzyme Research Laboratories) and the synthetic substrate, Acetyl-K—P—R-AFC (Sigma # C6608) at a concentration of […].
Times required to achieve equilibration between enzyme and inhibitor were determined in control experiments. The reactions were performed under linear progress curve conditions and fluorescence increase measured at 405 Ex/510 Em nm. […] IC50 was determined by inflection point from a four parameter logistic curve fit. Ki was calculated using the Cheng Prusoff equation, Ki=IC50/(1+([S]/Km)).

T2 sequence (P03952 391-638 limits assumed): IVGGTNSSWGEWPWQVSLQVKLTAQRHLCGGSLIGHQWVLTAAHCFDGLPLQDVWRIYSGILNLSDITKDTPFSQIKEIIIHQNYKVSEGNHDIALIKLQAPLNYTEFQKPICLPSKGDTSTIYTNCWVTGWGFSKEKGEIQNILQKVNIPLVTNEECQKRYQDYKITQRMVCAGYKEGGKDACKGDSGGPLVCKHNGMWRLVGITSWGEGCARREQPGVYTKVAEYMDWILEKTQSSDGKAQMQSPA
T2 sequence (P03952 20-390 partner limits assumed): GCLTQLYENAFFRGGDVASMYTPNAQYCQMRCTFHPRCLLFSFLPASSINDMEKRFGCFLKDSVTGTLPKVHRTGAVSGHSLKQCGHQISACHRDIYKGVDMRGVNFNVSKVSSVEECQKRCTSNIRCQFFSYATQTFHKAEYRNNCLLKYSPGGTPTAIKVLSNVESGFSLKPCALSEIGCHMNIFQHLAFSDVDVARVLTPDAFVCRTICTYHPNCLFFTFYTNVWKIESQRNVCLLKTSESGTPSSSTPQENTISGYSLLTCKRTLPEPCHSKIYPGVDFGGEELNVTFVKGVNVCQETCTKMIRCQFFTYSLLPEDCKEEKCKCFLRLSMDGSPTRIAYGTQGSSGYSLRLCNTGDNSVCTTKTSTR
T1 sequence (P03951 388-625 limits assumed): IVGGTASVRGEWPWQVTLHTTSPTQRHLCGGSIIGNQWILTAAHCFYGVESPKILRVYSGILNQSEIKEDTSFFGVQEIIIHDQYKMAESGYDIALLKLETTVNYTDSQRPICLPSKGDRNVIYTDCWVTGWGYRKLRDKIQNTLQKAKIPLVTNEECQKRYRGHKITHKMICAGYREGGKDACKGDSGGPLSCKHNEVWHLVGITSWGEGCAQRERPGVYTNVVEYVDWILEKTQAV
T1 sequence (P03951 19-387 partner limits assumed): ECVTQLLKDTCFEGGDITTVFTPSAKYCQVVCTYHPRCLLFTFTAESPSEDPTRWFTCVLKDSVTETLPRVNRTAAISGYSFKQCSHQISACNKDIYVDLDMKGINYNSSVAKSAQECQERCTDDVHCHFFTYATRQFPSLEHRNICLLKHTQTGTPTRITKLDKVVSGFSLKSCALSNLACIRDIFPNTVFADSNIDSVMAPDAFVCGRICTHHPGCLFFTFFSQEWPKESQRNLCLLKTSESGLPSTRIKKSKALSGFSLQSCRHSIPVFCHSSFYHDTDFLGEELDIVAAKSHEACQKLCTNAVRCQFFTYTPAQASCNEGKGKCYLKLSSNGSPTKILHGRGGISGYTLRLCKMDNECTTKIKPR

IC50 [1] [nM]	IC50 [2] [nM]	Structure (SMILES)
6.52	193	[O-][n+]1cc(-c2cc(Cl)ccc2-n2cnnn2)ccc1C(Cc1ccc(F)cc1)c1nc(-c2ccc(Cl)cc2)c[nH]1 (single isomer, unassigned) [Example 22]
14.8	404	[O-][n+]1cc(-c2cc(Cl)ccc2-n2cnnn2)ccc1C(Cc1ccc(F)cc1)c1nc(-c2ccc(F)cc2)c[nH]1 (single isomer, unassigned) [Example 17]
	5.6	COC(=O)Nc1ccc(-c2c[nH]c(C(CC3CC3)c3ccc(-c4c(-n5cnnn5)ccc(Cl)c4F)c[n+]3[O-])n2)cc1 (single isomer, unassigned) [Example 64, 5-(3-chloro-2-fluoro-6-(1H-tetrazol-1-yl)phenyl)-2-(2-cyclopropyl-1-(4-(4-((methoxycarbonyl)amino)phenyl)-1H-imidazol-2-yl)ethyl)pyridine 1-oxide]
1.52	14.7	COC(=O)Nc1ccc(-c2cnc(C(CC3(C)CC3)c3ccc(-c4cc(Cl)ccc4-n4cnnn4)c[n+]3[O-])[nH]2)cc1 (single isomer, unassigned) [Example 44]
2.87	27.6	[O-][n+]1cc(-c2cc(Cl)ccc2-n2cnnn2)ccc1C(Cc1ccccc1)c1nc(-c2cccc(F)c2)c[nH]1 (single isomer, unassigned) [Example 3]
4.9	76	NC(=O)c1scc(-c2cnc(C(CC3CC3)c3ccc(-c4cc(Cl)ccc4-n4cnnn4)c[n+]3[O-])[nH]2)c1F (single isomer, unassigned) [Example 60, 2-(1-(5-(5-carbamoyl-4-fluorothiophen-3-yl)-1H-imidazol-2-yl)-2-cyclopropylethyl)-5-(5-chloro-2-(1H-tetrazol-1-yl)phenyl)pyridine 1-oxide]
51.5	2610	COC(=O)Nc1ccc(-c2cnc(C(CC3CC3)c3ccc(-c4cc(Cl)ccc4-c4csnn4)c[n+]3[O-])[nH]2)cc1 (racemic) [Example 72]
0.19	0.94	O=C(O)c1scc(-c2c[nH]c(C(Cc3ccccc3)c3ccc(-c4cc(Cl)ccc4-n4cnnn4)c[n+]3[O-])n2)c1F (single isomer, unassigned) [Example 9]
11.3	10.3	COC(=O)Nc1ccc(-c2c[nH]c(C(Cc3ccc(F)cc3)c3ccc(-c4c(C(F)F)ccc(Cl)c4F)c[n+]3[O-])n2)cc1 (racemic) [Example 13, 5-(3-Chloro-6-(difluoromethyl)-2-fluorophenyl)-2-(2-(4-fluorophenyl)-1-(4-(4-((methoxycarbonyl)amino)phenyl)-1H-imidazol-2-yl)ethyl)pyridine 1-oxide]
	231	COC(=O)Nc1ccc(-c2c[nH]c(C(CC3CC3)c3ccc(-c4c(-n5cnnn5)ccc(Cl)c4F)c[n+]3[O-])n2)cc1 (single isomer, unassigned) [Example 63, 5-(3-chloro-2-fluoro-6-(1H-tetrazol-1-yl)phenyl)-2-(2-cyclopropyl-1-(4-(4-((methoxycarbonyl)amino)phenyl)-1H-imidazol-2-yl)ethyl)pyridine 1-oxide]
3.31	24.1	COC(=O)Nc1ccc(-c2cnc([C@H](Cc3ccccc3)c3ccc(-c4cc(Cl)ccc4-c4cnco4)c[n+]3[O-])[nH]2)cc1 [Example 25]
11	241	O=C(O)c1ccc(-c2cnc(C(CC3CC3)c3ccc(-c4cc(Cl)ccc4-n4cnnn4)c[n+]3[O-])[nH]2)cc1 (single isomer, unassigned) [Example 56]
2.85	226	N#Cc1ccc(-c2cnc(C(CC3CC3)c3ccc(-c4cc(Cl)ccc4-n4cnnn4)c[n+]3[O-])[nH]2)cc1 (single isomer, unassigned) [Example 29, 4-[2-(1-{5-[5-chloro-2-(1H-tetrazol-1-yl)phenyl]-1-oxidopyridin-2-yl}-2-cyclopropylethyl)-1H-imidazol-5-yl]benzonitrile]
11.8	1050	O=C(O)c1scc(-c2cnc(C(CC3CC3)c3ccc(-c4cc(Cl)ccc4-n4cnnn4)c[n+]3[O-])[nH]2)c1F (single isomer, unassigned) [Example 58, 2-(1-(5-(5-carboxy-4-fluorothiophen-3-yl)-1H-imidazol-2-yl)-2-cyclopropylethyl)-5-(5-chloro-2-(1H-tetrazol-1-yl)phenyl)pyridine 1-oxide]
0.32	80	Nc1ccc(-c2cnc(C(CC3CC3)c3ccc(-c4cc(Cl)ccc4-n4cnnn4)c[n+]3[O-])[nH]2)c(Cl)n1 (single isomer, unassigned) [Example 47, 6-chloro-5-[2-(1-{5-[5-chloro-2-(1H-tetrazol-1-yl)phenyl]-1-oxidopyridin-2-yl}-2-cyclopropylethyl)-1H-imidazol-5-yl]pyridin-2-amine]
1.2	68	COC(=O)Nc1ccc(-c2nnc(C(Cc3ccccc3)c3ccc(-c4cc(Cl)ccc4-n4cnnn4)c[n+]3[O-])o2)cc1 (racemic) [Example 83, 5-(5-chloro-2-(1H-tetrazol-1-yl)phenyl)-2-(1-(5-(4-((methoxycarbonyl)amino)phenyl)-1,3,4-oxadiazol-2-yl)-2-phenylethyl)pyridine 1-oxide]
0.58	28.1	COC(=O)Nc1ccc(-c2cnc(C(CC3CC3)c3ccc(-c4cc(Cl)ccc4-n4cnnn4)c[n+]3[O-])[nH]2)c(Cl)c1 (single isomer, unassigned) [Example 42]
0.67	26	O=C(O)c1ccc(-c2cnc(C(Cc3ccccc3)c3ccc(-c4cc(Cl)ccc4-n4cnnn4)c[n+]3[O-])[nH]2)cc1 (single isomer, unassigned) [Example 8]
2.82	76.1	COC(=O)Nc1ccc(-c2nc([C@@H](Cc3ccccc3)c3ccc(-c4cc(Cl)ccc4-n4cnnn4)c[n+]3[O-])[nH]c2Cl)cc1 [Example 2, (S) 5-(5-Chloro-2-(1H-tetrazol-1-yl)phenyl)-2-(1-(5-chloro-4-(4-((methoxycarbonyl)amino)phenyl)-1H-imidazol-2-yl)-2-phenylethyl)pyridine 1-oxide]
1.52	48	COC(=O)Nc1ccc(-c2[nH]c(C(CC3CC3)c3ccc(-c4cc(Cl)ccc4-n4cnnn4)c[n+]3[O-])nc2C)cc1 (single isomer, unassigned) [Example 77, methyl {4-[2-(1-{5-[5-chloro-2-(1H-tetrazol-1-yl)phenyl]-1-oxidopyridin-2-yl}-2-cyclopropylethyl)-4-methyl-1H-imidazol-5-yl]phenyl}carbamate]
27.4	377	N#Cc1cccc(-c2cnc(C(CC3CC3)c3ccc(-c4cc(Cl)ccc4-n4cnnn4)c[n+]3[O-])[nH]2)c1 (single isomer, unassigned) [Example 36]
3.82	0.78	[O-][n+]1cc(-c2cc(Cl)ccc2-n2cnnn2)ccc1C(Cc1ccc(F)cc1)c1nc(-c2ccc(F)cc2)c[nH]1 (single isomer, unassigned) [Example 16]
	20.8	COC(=O)Nc1ccc(-c2cnc(C(CC3CC3)c3ccc(-c4cc(Cl)ccc4-n4cnnn4)c[n+]3[O-])[nH]2)cc1 (single isomer, unassigned) [Example 28, 5-(5-chloro-2-(1H-tetrazol-1-yl)phenyl)-2-(2-cyclopropyl-1-(5-(4-((methoxycarbonyl)amino)phenyl)-1H-imidazol-2-yl)ethyl)pyridine 1-oxide]
	207	COC(=O)Nc1ccc(-c2cnc(C(CC3CC3)c3ccc(-c4cc(Cl)ccc4-n4cnnn4)c[n+]3[O-])[nH]2)cc1 (single isomer, unassigned) [Example 27, 5-(5-chloro-2-(1H-tetrazol-1-yl)phenyl)-2-(2-cyclopropyl-1-(5-(4-((methoxycarbonyl)amino)phenyl)-1H-imidazol-2-yl)ethyl)pyridine 1-oxide]
